# Assay results as given in patent EP1893597B1, “AMPA RECEPTOR POTENTIATORS” (ELI LILLY AND COMPANY, priority 2005, dated 2006).
# pEC50: −log10 of the molar value.
# Target: T1, human iGluR4 (Homo sapiens, UniProt P48058)
# T1 construct: expressed in transfected cells; host or cells: HEK293
# Experiment: Whole-cell voltage clamp potentiation of currents evoked by 1 mM glutamate in HEK293 cells stably expressing human iGluR4
# Assay type: cell-based
# Details: HEK293 cells stably expressing human iGluR4, voltage-clamped at -60mV, concentration increased in half log units, fit to the Hill equation
# From the text: HEK293 cells stably expressing human iGluR4 (obtained as described in European Patent Application Publication No. EP-A1-0583917) are used in the electrophysiological characterization of AMPA receptor potentiators. The extracellular recording solution contains (in mM): 140 NaCl, 5 KCl, 10 HEPES, 1 MgCl2, 2 CaCl2, 10 glucose, pH = 7.4 with NaOH, 295 mOsm kg-1. The intracellular recording solution contains (in mM): 140 CsCl, 1 MgCl2, 10 HEPES, (N-[2-hydroxyethyl]piperazine-N1-[2-ethanesulfonic acid]) 10 EGTA (ethylene-bis(oxyethylene-nitrilo)tetraacetic acid), pH = 7.2 with CsOH, 295 mOsm kg-1. With these solutions, recording pipettes have a resistance of 2-3 MΩ. […] Responses to 1 mM glutamate are then determined in the presence of test compound. […]
# In order to determine the potency of test compounds, the concentration of the test compound, both in the bathing solution and co-applied with glutamate, is increased in half log units until the maximum effect was seen. […] Reversibility of test compound activity is determined by assessing control glutamate 1mM responses. Once the control responses to the glutamate challenge are re-established, the potentiation of these responses by 100 µM cyclothiazide is determined by its inclusion in both the bathing solution and the glutamate-containing solution. In this manner, the efficacy of the test compound relative to that of cyclothiazide can be determined.
# T1 sequence (P48058 21-902): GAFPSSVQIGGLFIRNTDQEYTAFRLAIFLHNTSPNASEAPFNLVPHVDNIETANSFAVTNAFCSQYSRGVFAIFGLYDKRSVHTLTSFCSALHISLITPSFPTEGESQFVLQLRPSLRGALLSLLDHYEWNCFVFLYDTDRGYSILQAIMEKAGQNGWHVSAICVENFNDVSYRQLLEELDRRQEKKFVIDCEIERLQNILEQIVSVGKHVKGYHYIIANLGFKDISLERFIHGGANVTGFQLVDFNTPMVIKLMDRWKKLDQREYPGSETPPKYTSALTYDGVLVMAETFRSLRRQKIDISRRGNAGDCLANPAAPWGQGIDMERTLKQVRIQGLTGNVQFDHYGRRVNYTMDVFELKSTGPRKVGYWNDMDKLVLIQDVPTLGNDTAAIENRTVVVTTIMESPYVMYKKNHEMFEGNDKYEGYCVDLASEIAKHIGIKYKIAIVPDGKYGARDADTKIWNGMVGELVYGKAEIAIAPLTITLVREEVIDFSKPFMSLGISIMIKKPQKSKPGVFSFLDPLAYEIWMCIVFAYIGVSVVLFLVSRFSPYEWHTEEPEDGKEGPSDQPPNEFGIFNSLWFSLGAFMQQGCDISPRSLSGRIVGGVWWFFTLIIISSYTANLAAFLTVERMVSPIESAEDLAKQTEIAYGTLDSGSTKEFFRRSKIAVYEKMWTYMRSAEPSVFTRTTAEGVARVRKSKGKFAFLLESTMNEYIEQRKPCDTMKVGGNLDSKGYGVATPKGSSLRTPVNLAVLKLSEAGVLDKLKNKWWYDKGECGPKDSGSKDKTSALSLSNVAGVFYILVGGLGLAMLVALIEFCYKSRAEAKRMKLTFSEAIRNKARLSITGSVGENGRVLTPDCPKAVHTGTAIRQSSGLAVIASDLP
compound,measurement,value
"CC(C)S(=O)(=O)Nc1ccccc1-c1ccc(-c2ccc(-c3nnn[nH]3)cc2)cc1 [Example 77, Propane-2-sulfonic acid [4""-(1H-tetrazol-5-yl)-[1,1';4',1""]terphenyl-2-yl]-amide]",pEC50,6.35
